Laboratory results taken from patent US20240408050A1, “DIHYDROMYRICETIN SPRAY-DRIED DISPERSION FORMULATIONS AND METHODS FOR FORMING THEM” (The Trustees of Princeton University, priority 2018, published 2024).
Converted amounts (≈) assume the structure as drawn. Where two headings read alike, the source gives them in different places.

Assays:
[1] = low solubility and permeability; cited from earlier work
[2] = In vitro release in FeSSIF with 1% v/v Tween 20 (Polysorbate 20), Example 2, FIG. 4; format: physicochemical; details: FeSSIF + 1% v/v Tween 20, 37° C.
Procedure: (§1) Release Kinetics in Vitro: Simulated gastric fluid (FaSSGF) and intestinal fluids (FaSSIF and FeSSIF) are prepared according to the manufacturer's instructions. Dissolution tests are performed with spray dried DHM-containing powders or tablets with the appropriate controls. Release under Gastric Conditions: DHM-containing spray dried powder samples are suspended in prewarmed FaSSGF (37° C.) to achieve a drug (DHM) concentration of roughly 10-100× the previously determined equilibrium solubility in the FaSSGF fluid (e.g., 75 μg/mL) by pipetting up and down vigorously multiple times. The samples are incubated for the duration of the study (e.g., 30 min) at 37° C. […] The samples are then diluted as appropriate to fall within the detection range and analyzed by high-performance liquid chromatography (HPLC), with the mobile phase as 80:20 H2O: acetonitrile (each with 0.05% trifluoroacetic acid), and with detection with UV-Vis at 290 nm. The concentration of DHM is then calculated based on a calibration curve. […] The samples are then diluted as appropriate to fall within the detection range and analyzed by HPLC, with the mobile phase as 80:20 H2O: acetonitrile (each with 0.05% trifluoroacetic acid), and with detection with UV-Vis at 290 nm. The concentration of DHM is then calculated based on a calibration curve. […]

[3] = In vitro release in fed state simulated intestinal fluid (FeSSIF), Example 1, FIG. 3; format: physicochemical; details: 37° C., loaded at 1400 μg/mL DHM, 360 minute timepoint
Procedure: as §1

[4] = reference [17]; cited from earlier work
[5] = Equilibrium solubility of crystalline DHM in simulated intestinal fluids (FeSSIF, FaSSIF); format: physicochemical; details: thermodynamic from solid

For `O=C1c2c(O)cc(O)cc2O[C@H](c2cc(O)c(O)c(O)c2)[C@H]1O` [DHM, dihydromyricetin], the BCS class [1] is given as “BCS class IV”, the “effect of Tween 20 (Polysorbate 20) surfactant on solubility of DHM” value [2] is given as “increased” and the “dissolved DHM concentration at completion of the release study” value [3] is given as “approximately reached its previously determined equilibrium concentration”. For the same compound, the oral bioavailability [4] was “less than 5%”, the solubility thermodynamic ([5]; Fasted State Simulated Intestinal Fluid (FaSSIF), pH 6.5, fassif, fasted state simulated intestinal fluid, pH 6.5, read-out: equilibrium solubility in FaSSIF) was ~50 µg/mL (≈ 156 µM) and the solubility thermodynamic ([5]; Fed State Simulated Intestinal Fluid (FeSSIF), pH 5, fessif, fed state simulated intestinal fluid, pH 5.0, read-out: equilibrium solubility in FeSSIF) was ~140 µg/mL (≈ 437 µM).
